From ChEMBL document CHEMBL1201862, “PubChem BioAssay data set” (2004)
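Five concentrations, 48 hours, 96-well plates. At the GI50, growth is halved.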 Activity calls are given as the source filed them. No stated cut-off is given here; in the data, active = GI50 up to about 1.1 µM and inactive = higher.

How the values were obtained:
Assay in all cases: growth of human tumour cells (NCI), 48 h
[1] = test system: SF-295
[2] = test system: NCI-H23
[3] = test system: K562
[4] = test system: UACC-257
[5] = test system: MOLT-4
[6] = test system: TK-10
[7] = test system: NCI-H460
[8] = test system: SN12C
[9] = test system: SK-OV-3
[10] = test system: DLD-1
[11] = test system: SNB-19
[12] = test system: LOX IMVI
[13] = test system: HCC 2998
[14] = test system: Malme-3M
[15] = test system: OVCAR-4
[16] = test system: LXFL 529
[17] = test system: DMS-114
[18] = test system: RXF 393
[19] = test system: SR
[20] = test system: HCT-15
[21] = test system: KM-20L2
[22] = test system: COLO 205
[23] = test system: M19-MEL
[24] = test system: SW-620
[25] = test system: OVCAR-3
[26] = test system: DMS-273
[27] = test system: SK-MEL-5
[28] = test system: RPMI-8226
[29] = test system: EKVX
[30] = test system: XF498
[31] = test system: UACC-62
[32] = test system: SK-MEL-28
[33] = test system: UO-31
[34] = test system: A549
[35] = test system: SK-MEL-2
[36] = test system: SF-268
[37] = test system: HOP-18
[38] = test system: ACHN
[39] = test system: HT-29
[40] = test system: HOP-62
[41] = test system: OVCAR-8
[42] = test system: HCT-116
[43] = test system: SF-539
[44] = test system: CAKI-1
[45] = test system: KM12
[46] = test system: HOP-92
[47] = test system: CCRF-CEM
[48] = test system: IGROV-1
[49] = test system: SNB-78
[50] = test system: SNB-75
[51] = test system: U-251
[52] = test system: OVCAR-5
[53] = test system: 786-0
[54] = test system: M14
[55] = test system: HL-60
[56] = test system: A498
[57] = test system: NCI-H226
[58] = test system: RXF 631
[59] = test system: NCI-H522

For CC(SC(=S)N1CCOCC1)c1cc2oc(=O)n(C)c2cc1Cl (stereo not given), the GI50 [1] was > 100 µM (inactive), the GI50 [2] was > 100 µM (inactive) and the GI50 [3] was 33.3 µM (inactive). For the same molecule, the GI50 [4] was 74.5 µM (inactive), the GI50 [5] was 56.1 µM (inactive) and the GI50 [6] was > 100 µM (inactive). The GI50 [7] was > 100 µM (inactive), the GI50 [8] was > 100 µM (inactive) and the GI50 [9] was > 100 µM (inactive). For the same molecule, the GI50 [10] was > 100 µM (inactive), the GI50 [11] was > 100 µM (inactive) and the GI50 [12] was 40.9 µM (inactive). The GI50 [13] was > 100 µM (inactive), the GI50 [14] was > 100 µM (inactive) and the GI50 [15] was > 100 µM (inactive). The GI50 [16] was 57.4 µM (inactive), the GI50 [17] was 84.5 µM (inactive) and the GI50 [18] was > 100 µM (inactive). The GI50 [19] was 30.4 µM (inactive), the GI50 [20] was over 100 µM and the GI50 [21] was > 100 µM (inactive). The GI50 [22] was > 100 µM (inactive), the GI50 [23] was > 100 µM (inactive) and the GI50 [24] was > 10 µM (inactive). The GI50 [25] was > 100 µM (inactive), the GI50 [26] was > 100 µM (inactive) and the GI50 [27] was 62.7 µM (inactive). The GI50 [28] was 58.2 µM (inactive), the GI50 [29] was > 100 µM (inactive) and the GI50 [30] was > 100 µM (inactive). For the same molecule, the GI50 [31] was > 100 µM (inactive), the GI50 [32] was > 100 µM (inactive) and the GI50 [33] was > 100 µM (inactive). The GI50 [34] was 42.2 µM (inactive), the GI50 [35] was > 100 µM (inactive) and the GI50 [36] was > 100 µM (inactive). The GI50 [37] was > 100 µM (inactive), the GI50 [38] was > 100 µM (inactive) and the GI50 [39] was > 100 µM (inactive). For the same molecule, the GI50 [40] was > 100 µM (inactive), the GI50 [41] was > 100 µM (inactive) and the GI50 [42] was > 100 µM (inactive). The GI50 [43] was 76 µM (inactive), the GI50 [44] was > 100 µM (inactive) and the GI50 [45] was > 100 µM (inactive). The GI50 [46] was > 10 µM (inactive), the GI50 [47] was 19.8 µM (inactive) and the GI50 [48] was > 10 µM (inactive). The GI50 [49] was > 100 µM (inactive), the GI50 [50] was 76 µM (inactive) and the GI50 [51] was > 100 µM (inactive). For the same molecule, the GI50 [52] was > 100 µM (inactive), the GI50 [53] was > 100 µM (inactive) and the GI50 [54] was > 100 µM (inactive). The GI50 [55] was 39.4 µM (inactive).
In the case of O=c1c2cc(Cl)ccc2sc2cccc(Cl)c12, the GI50 [1] is reported as > 100 µM (inactive), the GI50 [2] is reported as > 100 µM (inactive) and the GI50 [3] is reported as > 100 µM (inactive). For the same molecule, the GI50 [56] was > 100 µM (inactive), the GI50 [4] was > 100 µM (inactive) and the GI50 [5] was > 100 µM (inactive). For the same molecule, the GI50 [6] was > 100 µM (inactive), the GI50 [7] was > 100 µM (inactive) and the GI50 [8] was > 100 µM (inactive). For the same molecule, the GI50 [57] was > 100 µM (inactive), the GI50 [11] was > 100 µM (inactive) and the GI50 [12] was > 100 µM (inactive). For the same molecule, the GI50 [15] was > 100 µM (inactive), the GI50 [16] was > 100 µM (inactive) and the GI50 [18] was > 100 µM (inactive). For the same molecule, the GI50 [19] was > 100 µM (inactive), the GI50 [20] was over 100 µM and the GI50 [21] was > 100 µM (inactive). The GI50 [22] was > 100 µM (inactive), the GI50 [23] was > 100 µM (inactive) and the GI50 [24] was > 100 µM (inactive). The GI50 [25] was > 100 µM (inactive), the GI50 [26] was > 100 µM (inactive) and the GI50 [28] was > 100 µM (inactive). For the same molecule, the GI50 [29] was > 100 µM (inactive), the GI50 [31] was > 100 µM (inactive) and the GI50 [32] was > 100 µM (inactive). The GI50 [33] was > 100 µM (inactive), the GI50 [58] was > 100 µM (inactive) and the GI50 [34] was > 100 µM (inactive). The GI50 [35] was > 100 µM (inactive), the GI50 [36] was > 100 µM (inactive) and the GI50 [38] was > 100 µM (inactive). The GI50 [39] was > 100 µM (inactive), the GI50 [40] was > 100 µM (inactive) and the GI50 [41] was > 100 µM (inactive). The GI50 [42] was > 100 µM (inactive), the GI50 [43] was > 100 µM (inactive) and the GI50 [44] was > 100 µM (inactive). For the same molecule, the GI50 [45] was > 100 µM (inactive), the GI50 [59] was > 100 µM (inactive) and the GI50 [46] was > 100 µM (inactive). For the same molecule, the GI50 [47] was > 100 µM (inactive), the GI50 [48] was > 100 µM (inactive) and the GI50 [49] was > 100 µM (inactive). For the same molecule, the GI50 [51] was > 100 µM (inactive), the GI50 [52] was > 100 µM (inactive) and the GI50 [53] was > 100 µM (inactive). For the same molecule, the GI50 [54] was > 100 µM (inactive) and the GI50 [55] was > 100 µM (inactive).
